Numbered stars: 1 amine (or outer) side, 2 acyl side, 3 side chain; on linkers, the order of the positions; unused ones are H or OH. Bridge positions count the residues as written; N and C are the ends. Square brackets hold non-standard residues; d marks the D form. Side chains are listed from the residue outwards. Peptide text beside a SMILES is read from it. * marks the point of attachment. Trp(1-CH2COOH) = N[C@@H](Cc1cn(CC(=O)O)c2ccccc12)C(=O)O; Nle(6-morpholino) = N[C@@H](CCCCN1CCOCC1)C(=O)O; Trp(7-aza) = N[C@@H](Cc1c[nH]c2ncccc12)C(=O)O; NMePhe(3-Cl) = CN[C@@H](Cc1cccc(Cl)c1)C(=O)O; Piperazinyl(4-CH2COOH) = O=C(O)CN1CCN(*)CC1; 3Pal(6-NH2) = Nc1ccc(C[C@H](N)C(=O)O)cn1; NMeY = CN[C@@H](Cc1ccc(O)cc1)C(=O)O; 4Pal = N[C@@H](Cc1ccncc1)C(=O)O; PEG4 = NCCOCCOCCOCCOCCC(=O)O; Carboxymethyl = O=C(O)C*; CO = O=C([*:1])[*:2]
Assays:
[1] = biological target: T1, human transferrin receptor (hTfR) (Homo sapiens, UniProt P02786); assay: SPR measurement under pH 7.4 conditions (Biacore T200, CM3 chip, hTfR captured by His Tag antibody); format: binding; details: pH 7.4, single-cycle kinetics; read-out: hTfR SPR pH7.4 KD
T1 sequence (P02786 whole entry): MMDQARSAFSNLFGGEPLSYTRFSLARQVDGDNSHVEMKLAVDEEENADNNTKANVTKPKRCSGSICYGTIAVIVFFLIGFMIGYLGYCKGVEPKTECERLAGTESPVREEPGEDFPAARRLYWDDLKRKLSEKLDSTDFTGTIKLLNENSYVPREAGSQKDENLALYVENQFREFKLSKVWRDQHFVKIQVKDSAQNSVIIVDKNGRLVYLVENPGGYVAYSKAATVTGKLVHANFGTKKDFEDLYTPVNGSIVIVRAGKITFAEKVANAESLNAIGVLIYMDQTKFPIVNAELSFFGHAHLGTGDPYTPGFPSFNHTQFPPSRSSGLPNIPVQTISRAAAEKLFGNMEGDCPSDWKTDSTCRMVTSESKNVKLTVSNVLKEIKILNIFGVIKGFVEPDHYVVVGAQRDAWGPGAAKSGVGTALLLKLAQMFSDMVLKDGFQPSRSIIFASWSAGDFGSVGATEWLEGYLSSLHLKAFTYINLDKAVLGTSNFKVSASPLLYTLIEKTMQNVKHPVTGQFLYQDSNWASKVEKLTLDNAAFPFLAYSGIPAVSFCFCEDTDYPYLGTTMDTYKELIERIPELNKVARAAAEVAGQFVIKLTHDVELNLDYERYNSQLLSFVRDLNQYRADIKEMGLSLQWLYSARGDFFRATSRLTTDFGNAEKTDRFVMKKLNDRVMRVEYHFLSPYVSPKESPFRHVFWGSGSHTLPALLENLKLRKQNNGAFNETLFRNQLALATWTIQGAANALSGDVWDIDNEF

[2] = biological target: T1, human transferrin receptor (hTfR); assay: SPR measurement under pH 6.0 conditions (Biacore T200, NTA chip, immobilized hTfR); format: binding; details: pH 6.0, single-cycle kinetics; read-out: hTfR SPR pH6.0 KD
Method: Molecular interactions between the synthesized peptides and the transferrin receptor (hTfR) were evaluated by surface plasmon resonance (SPR) using the following method. The specific assay procedure is described below.
An NTA sensor chip (Cytiva) was inserted in a Biacore T200 (Cytiva), a priming operation was performed 3 times with a running buffer: HBS-P+ pH 6.0 (Cytiva), and an equilibrium state was created at a flow rate of 30 µL/min. A ligand immobilization operation was carried out at a flow rate of 10 µL/min.
The surface of the NTA sensor chip was washed with 350 mM EDTA solution, nickel ions were loaded into the carbomethyldextran chains of the sensor chip with a 500 µM aqueous nickel chloride solution, and then washing was performed with 3 mM EDTA solution. After mixing 50 µL of each of 60 mM EDC solution (Cytiva) and 650 mM NHS solution (Cytiva), the mixture was reacted for 420 seconds at a flow rate of 10 µL/min. 150 µL of 0.2 µM hTfR solution was prepared by diluting with 10 mM acetic acid solution (pH 5.0), and reacted for 420 seconds at a flow rate of 10 µL/min to immobilize hTfR on the NTA sensor chip. For the human transferrin receptor (hTfR), the recombinant hTfR described in Example 2 of WO2018/124121 was used. After immobilization, capping was performed by reacting with 1.0 M ethanolamine aqueous solution (Cytiva) at a flow rate of 10 µL/min for 420 seconds. Peptide lysate prepared in DMSO to 10 mM was diluted with the running buffer to a final concentration of 10 µM peptide lysate, and then peptide solutions of 250 nM, 125 nM, 62.5 nM, 25 nM, and 12.5 nM were prepared. The kinetics of the peptide against hTfR was obtained by SPR measurement using the above samples.
The kinetic evaluation model was single-cycle kinetics, and curve fitting was performed using Biacore T200 Evaluation Software Version 3.0 (Cytiva). The binding of the peptide to hTfR was evaluated by performing curve fitting on the obtained sensorgram by the least squares method and obtaining the kon value, the koff value, and the KD value.

| Kd [1] | Kd [2] | Structure (SMILES) |
| --- | --- | --- |
| 0.00263 µM | 0.0161 µM | CC[C@H](C)[C@@H]1NC(=O)[C@H](Cc2ccc(OC)cc2)NC(=O)[C@H](Cc2ccc(N)nc2)NC(=O)[C@H](CC(N)=O)NC(=O)[C@H](Cc2c[nH]c3ncccc23)NC(=O)[C@H](C(C)C)NC(=O)[C@H](Cc2cccc(Cl)c2)N(C)C(=O)[C@H](C(C)C)NC(=O)[C@H](C)NC(=O)CSC[C@@H](C(=O)NCCOCCOCCOCCOCCC(N)=O)NC(=O)[C@H](Cc2ccc(O)cc2)N(C)C(=O)[C@H](Cc2ccncc2)NC(=O)[C@H](CCCCN2CCOCC2)NC(=O)[C@H](CCCNC(=N)N)NC(=O)[C@H]([C@@H](C)CC)NC1=O [compound 3] ({CH2CO}-AV[NMePhe(3-Cl)]V[Trp(7-aza)]N[3Pal(6-NH2)]Y(Me)IIR[Nle(6-morpholino)][4Pal][NMeY]C[PEG4]-NH2; thioether N-15) |
| 0.00219 µM | 0.0297 µM | CC[C@H](C)[C@@H]1NC(=O)[C@H](Cc2ccc(OC)cc2)NC(=O)[C@H](Cc2ccc(N)nc2)NC(=O)[C@H](CC(N)=O)NC(=O)[C@H](Cc2c[nH]c3ncccc23)NC(=O)[C@H](C(C)C)NC(=O)[C@H](Cc2cccc(Cl)c2)N(C)C(=O)[C@H](C(C)C)NC(=O)[C@H](C)NC(=O)CSC[C@@H](C(=O)NCCOCCOCCOCCOCCC(N)=O)NC(=O)[C@H](Cc2ccc(O)cc2)N(C)C(=O)[C@H](Cc2ccncc2)NC(=O)[C@H](CCCCN2CCOCC2)NC(=O)[C@H](CCCCN2CCOCC2)NC(=O)[C@H]([C@@H](C)CC)NC1=O [compound 4] ({CH2CO}-AV[NMePhe(3-Cl)]V[Trp(7-aza)]N[3Pal(6-NH2)]Y(Me)II[Nle(6-morpholino)][Nle(6-morpholino)][4Pal][NMeY]C[PEG4]-NH2; thioether N-15) |
| 0.00631 µM | 0.117 µM | CC[C@H](C)[C@@H]1NC(=O)[C@H](Cc2ccc(OC)cc2)NC(=O)[C@H](Cc2ccc(N)nc2)NC(=O)[C@H](CC(N)=O)NC(=O)[C@H](Cc2c[nH]c3ncccc23)NC(=O)[C@H](C(C)C)NC(=O)[C@H](Cc2cccc(Cl)c2)N(C)C(=O)[C@H](C(C)C)NC(=O)[C@H](C)NC(=O)CSC[C@@H](C(=O)NCCOCCOCCOCCOCCC(N)=O)NC(=O)[C@H](Cc2ccc(O)cc2)N(C)C(=O)[C@H](Cc2ccncc2)NC(=O)[C@H](CCCCNC(=O)N2CCN(CC(=O)O)CC2)NC(=O)[C@H](CCCCN2CCOCC2)NC(=O)[C@H]([C@@H](C)CC)NC1=O [compound 5] ({CH2CO}-AV[NMePhe(3-Cl)]V[Trp(7-aza)]N[3Pal(6-NH2)]Y(Me)II[Nle(6-morpholino)]K([CO-Piperazinyl(4-CH2COOH)])[4Pal][NMeY]C[PEG4]-NH2; thioether N-15) |
| 0.00656 µM | 0.021 µM | CC[C@H](C)[C@@H]1NC(=O)[C@H](Cc2ccc(OC)cc2)NC(=O)[C@H](Cc2ccc(N)nc2)NC(=O)[C@H](CC(N)=O)NC(=O)[C@H](Cc2cn(CC(=O)O)c3ccccc23)NC(=O)[C@H](C(C)C)NC(=O)[C@H](Cc2cccc(Cl)c2)N(C)C(=O)[C@H](C(C)C)NC(=O)[C@H](C)NC(=O)CSC[C@@H](C(=O)NCCOCCOCCOCCOCCC(N)=O)NC(=O)[C@H](Cc2ccc(O)cc2)N(C)C(=O)[C@H](Cc2ccncc2)NC(=O)[C@H](CCCCN2CCOCC2)NC(=O)[C@H](CCCCN2CCOCC2)NC(=O)[C@H]([C@@H](C)CC)NC1=O [compound 6] ({CH2CO}-AV[NMePhe(3-Cl)]V[Trp(1-CH2COOH)]N[3Pal(6-NH2)]Y(Me)II[Nle(6-morpholino)][Nle(6-morpholino)][4Pal][NMeY]C[PEG4]-NH2; thioether N-15) |
| 0.0163 µM | 0.0898 µM | CC[C@H](C)[C@@H]1NC(=O)[C@H](Cc2ccc(OCC(=O)O)cc2)NC(=O)[C@H](Cc2ccc(N)nc2)NC(=O)[C@H](CC(N)=O)NC(=O)[C@H](Cc2c[nH]c3ncccc23)NC(=O)[C@H](C(C)C)NC(=O)[C@H](Cc2cccc(Cl)c2)N(C)C(=O)[C@H](C(C)C)NC(=O)[C@H](C)NC(=O)CSC[C@@H](C(=O)NCCOCCOCCOCCOCCC(N)=O)NC(=O)[C@H](Cc2ccc(O)cc2)N(C)C(=O)[C@H](Cc2ccncc2)NC(=O)[C@H](CCCCN2CCOCC2)NC(=O)[C@H](CCCCN2CCOCC2)NC(=O)[C@H]([C@@H](C)CC)NC1=O [compound 7] ({CH2CO}-AV[NMePhe(3-Cl)]V[Trp(7-aza)]N[3Pal(6-NH2)]Y(Carboxymethyl)II[Nle(6-morpholino)][Nle(6-morpholino)][4Pal][NMeY]C[PEG4]-NH2; thioether N-15) |

Continued, compound first:

| Structure (SMILES) | Kd [1] | Kd [2] |
| --- | --- | --- |
| CC[C@H](C)[C@@H]1NC(=O)[C@H](Cc2ccc(OC)cc2)NC(=O)[C@H](Cc2ccc(N)nc2)NC(=O)[C@H](CC(N)=O)NC(=O)[C@H](Cc2cn(CC(=O)O)c3ccccc23)NC(=O)[C@H](C(C)C)NC(=O)[C@H](Cc2cccc(Cl)c2)N(C)C(=O)[C@H](C(C)C)NC(=O)[C@H](C)NC(=O)CSC[C@@H](C(=O)NCCOCCOCCOCCOCCC(N)=O)NC(=O)[C@H](Cc2ccc(O)cc2)N(C)C(=O)[C@H](Cc2ccncc2)NC(=O)[C@H](CCCCNC(=O)N2CCN(CC(=O)O)CC2)NC(=O)[C@H](CCCCN2CCOCC2)NC(=O)[C@H]([C@@H](C)CC)NC1=O [compound 8] ({CH2CO}-AV[NMePhe(3-Cl)]V[Trp(1-CH2COOH)]N[3Pal(6-NH2)]Y(Me)II[Nle(6-morpholino)]K([CO-Piperazinyl(4-CH2COOH)])[4Pal][NMeY]C[PEG4]-NH2; thioether N-15) | 0.0107 µM | 0.113 µM |
| CC[C@H](C)[C@@H]1NC(=O)[C@H](Cc2ccc(OCC(=O)O)cc2)NC(=O)[C@H](Cc2ccc(N)nc2)NC(=O)[C@H](CC(N)=O)NC(=O)[C@H](Cc2c[nH]c3ncccc23)NC(=O)[C@H](C(C)C)NC(=O)[C@H](Cc2cccc(Cl)c2)N(C)C(=O)[C@H](C(C)C)NC(=O)[C@H](C)NC(=O)CSC[C@@H](C(=O)NCCOCCOCCOCCOCCC(N)=O)NC(=O)[C@H](Cc2ccc(O)cc2)N(C)C(=O)[C@H](Cc2ccncc2)NC(=O)[C@H](CCCCNC(=O)N2CCN(CC(=O)O)CC2)NC(=O)[C@H](CCCCN2CCOCC2)NC(=O)[C@H]([C@@H](C)CC)NC1=O [compound 9] ({CH2CO}-AV[NMePhe(3-Cl)]V[Trp(7-aza)]N[3Pal(6-NH2)]Y(Carboxymethyl)II[Nle(6-morpholino)]K([CO-Piperazinyl(4-CH2COOH)])[4Pal][NMeY]C[PEG4]-NH2; thioether N-15) | 0.0291 µM | 0.774 µM |
| CC[C@H](C)[C@@H]1NC(=O)[C@H](Cc2ccc(OC)cc2)NC(=O)[C@H](Cc2ccc(N)nc2)NC(=O)[C@H](CC(N)=O)NC(=O)[C@H](Cc2c[nH]c3ncccc23)NC(=O)[C@H](C(C)C)NC(=O)[C@H](Cc2cccc(Cl)c2)N(C)C(=O)[C@H](C(C)C)NC(=O)[C@H](C)NC(=O)CSC[C@@H](C(=O)NCCOCCOCCOCCOCCC(N)=O)NC(=O)[C@H](Cc2ccc(O)cc2)N(C)C(=O)[C@H](Cc2ccncc2)NC(=O)[C@H](CCCNC(=N)N)NC(=O)[C@H](CCC(=O)NC[C@H](O)[C@@H](O)[C@H](O)[C@H](O)CO)NC(=O)[C@H]([C@@H](C)CC)NC1=O [compound 10] | 0.0025 µM | 0.0366 µM |
| CC[C@H](C)[C@@H]1NC(=O)[C@H](Cc2ccc(OC)cc2)NC(=O)[C@H](Cc2ccc(N)nc2)NC(=O)[C@H](CC(N)=O)NC(=O)[C@H](Cc2c[nH]c3ncccc23)NC(=O)[C@H](C(C)C)NC(=O)[C@H](Cc2cccc(Cl)c2)N(C)C(=O)[C@H](C(C)C)NC(=O)[C@H](C)NC(=O)CSC[C@@H](C(=O)NCCOCCOCCOCCOCCC(N)=O)NC(=O)[C@H](Cc2ccc(O)cc2)N(C)C(=O)[C@H](Cc2ccncc2)NC(=O)[C@H](CCCNC(=N)N)NC(=O)[C@H](CCC(=O)NCCOCCOCCOCCOCCOCCOCCOCCOC)NC(=O)[C@H]([C@@H](C)CC)NC1=O [compound 11] | 0.0071 µM | 0.11 µM |

Source: patent EP4667483A1, “HUMAN TRANSFERRIN RECEPTOR-BINDING PEPTIDE” (JCR Pharmaceuticals Co., Ltd., priority 2023, dated 2024)
